Columns and labels:
Format in all cases: cell-based
[1] = tested on: Human macrophage-like THP-1 cells; test: qRT-PCR of cytokine-induced gene expression in THP-1 cells
Protocol: (§1) Quantitative real-time PCR (qRT-PCR): Human FLS or monocytic THP-1 cells were stimulated with indicated stimulants for 4 hr. RNA was isolated and analyzed for gene expression by qRT-PCR using SuperScript III Platinum Two-Step qRT-PCR Kit with SYBR Green (Invitrogen), according to the manufacturer's instructions, in the ABI PRISM 7000 sequence detection system (Applied Biosystems). Fold changes were calculated using the comparative Ct method, after normalization using 18S rRNA primers.
as §1, with “macrophage-like” for “monocytic”

[2] = tested on: Human fibroblast-like synovial (FLS) cells; test: qRT-PCR of cytokine-induced gene expression in FLS cells; details: some of the responses
Protocol: Cell culture and isolation: Human fibroblast-like synovial (FLS) cells were isolated from synovial tissues obtained from patients […]. Briefly, the tissues were digested with 1 mg/ml collagenase and 0.05 mg/ml hyaluronidase (both obtained from Sigma; Oakville, ON, Canada) in Hanks' balanced salt solution (Gibco) for 1-2 hours at 37° C. The cells were cultured in DMEM media (Gibco) supplemented with sodium pyruvate and non-essential amino acids (referred to as complete DMEM media henceforth), containing […] in a humidified incubator at 37° C. and 10% CO2. […] Cellular cytotoxicity was evaluated after 24 hr stimulation with the various stimulants used in this study by monitoring the release of lactate dehydrogenase (LDH) employing a colorimetric detection kit (Roche Diagnostics, Laval, QC, Canada).
as §1, with “primers. […]” for “primers.”

[3] = tested on: Human macrophage-like THP-1 cells; test: ELISA of cytokine/chemokine production in THP-1 tissue culture supernatants
Protocol: ELISA immunoassay: Tissue culture supernatants were centrifuged at 1500× g for 5-7 min to obtain cell-free samples and the aliquots were stored at −20° C. until further use. Production of chemokine Gro-α was monitored in the tissue culture supernatants by ELISA employing human Gro-α DuoSet (R&D Systems Inc.) as per the manufacturer's instructions. Production of cytokine TNF-α was monitored in the tissue culture supernatants using specific antibody pairs from eBioscience, Inc., and production of IL-8 was monitored using specific antibody pairs from R&D Systems, Inc., as per the manufacturer's instructions. The concentration of the cytokines or chemokines in the tissue culture supernatants was evaluated by establishing a standard curve with serial dilutions of the recombinant human cytokines or chemokines as required.
ELISA immunoassay: Tissue culture supernatants were centrifuged at 1500× g for 5-7 min to obtain cell-free samples and the aliquots were stored at −20° C. until further use. Production of chemokine Gro-α was monitored in the tissue culture supernatants by ELISA employing human Gro-α DuoSet (R&D Systems Inc.) per the manufacturer's instructions. Production of cytokine TNF-α was monitored in the tissue culture supernatants using specific antibody pairs from eBioscience, Inc., and production of IL-8 was monitored using specific antibody pairs from R&D Systems, Inc., per the manufacturers' instructions. The concentrations of the cytokines or chemokines in the tissue culture supernatants were evaluated by establishing a standard curve with serial dilutions of the recombinant human cytokines or chemokines as required.
Impact of cationic peptide LL-37 and its synthetic derivatives on IL-32-induced protein production: Human macrophage-like THP-1 cells were stimulated with IL-32 (20 ng/mL) in the presence and absence of cationic peptide LL-37, tissues culture supernatants were monitored for the production of pro-inflammatory cytokines TNF-α and IL-1β, and chemokines after 24 hr of stimulation. […] As LL-37 suppressed IL-32-mediated pro-inflammatory responses, we also evaluated the impact of LL-37 derived synthetic peptides. […] No studies to data have explored the impact of these peptides in the context of chronic inflammation. […] This provides the data that supports further investigation of these peptide candidates as potential therapeutics for diseases characterized by chronic inflammation.

human PBMC = test: ELISA of IL-32-induced TNF-α and IL-1β production in PBMC (ex-vivo)
From the text: In order to confirm these activities in a physiologically relevant system, we evaluated the impact of the peptide in an ex-vivo assay using human PBMC, because cells recruited from the circulation are a major component of inflammatory infiltrates. Venous blood was collected from healthy volunteers with informed consent in accordance to a protocol approved by the Institutional Review Board at the University of Manitoba. PBMC was isolated from blood following the teaching of Mookherjee et al. (2009, Systems biology evaluation of immune responses induced by human host defence peptide LL-37 in mononuclear cells. Mol. Biosyst. 5:483-496). PBMC were stimulated with chronic inflammatory cytokine IL-32 (20 ng/ml) in the presence and absence of 5 μM of peptides, LL-37 and its derivatives (Table 7) for 24 hr. The tissue culture supernatants were monitored for the production of pro-inflammatory cytokines TNF-α and IL-1β by ELISA. […] Results shown are an average of four independent biological experiments performed with cells isolated from blood of four different donors ±standard error.

[4] = tested on: Human macrophage-like THP-1 cells; test: ELISA of cytokine/chemokine production in THP-1 tissue culture supernatants; details: both monocytic THP-1 and human FLS cells, data not shown
[5] = THP-1 cells, in the presence of the peptide
[6] = THP-1 cells, in the presence of the peptide, p<0.01
[7] = macrophage-like THP-1 cells, IL-32 20 ng/mL, 24 hr

Substance: LL-37: Human cathelicidin cationic host defence peptide, SEQ ID NO: 21, LLGDFFRKSKEKIGKEFKRIVQRIKDFLRNLVPRTES
- Suppression of IL-32-induced IL-8 (CXCL8) expression [1, 5]: 30-40%
- Suppression of IL-32-induced IL-23 expression [1, 5]: 30-40%
- Suppression of IL-32-induced NF-κB1A expression [1, 5]: 30-40%
- Suppression of IL-32-induced Gro-α (CXCL1) gene expression [1, 6]: > 50%
- Suppression of IL-32-induced IL-6 gene expression [1, 6]: > 50%
- Suppression of IL-32-induced TNF-α gene expression [1, 6]: > 50%
- Effect on IL-17-induced expression of pro-inflammatory genes or chemokine genes ([1]; human monocytic cells / macrophages, data not shown): not altered
- Effect on IL-17-induced transcriptional responses [2]: significantly enhanced
- Suppression of IL-32-induced TNF-α production ([3]; THP-1 monocytic cells, ELISA after 24 or 48 hr): > 30%
- Suppression of IL-32-induced chemokine Gro-α production ([3]; THP-1 monocytic cells, ELISA after 24 or 48 hr, p<0.05): 12±4%
- Effect on IL-32-induced IL-1β production [3, 7]: significantly suppressed
- Effect on IL-32-induced TNF-α production [3, 7]: significantly suppressed
- Effect on IL-32-induced chemokine production (IL-8, GROα) [3, 7]: not altered
- Effect on IL-32-induced IL-1β production (human PBMC; human PBMC, IL-32 20 ng/ml, 5 μM peptide, 24 hr): neutralized
- Effect on IL-32-induced TNF-α production (human PBMC; human PBMC, IL-32 20 ng/ml, 5 μM peptide, 24 hr, p<0.05): neutralized
- Effect on IL-32 induced pro-inflammatory protein production (FIG. 21 legend) (human PBMC; peripheral blood mononuclear cells): suppression
- Effect on IL-17-induced chemokine production [4]: not significantly altered (or modestly enhanced)
